Target: T1, SLO3 (Homo sapiens, UniProt A8MYU2)
T1 sequence (A8MYU2 1-1149): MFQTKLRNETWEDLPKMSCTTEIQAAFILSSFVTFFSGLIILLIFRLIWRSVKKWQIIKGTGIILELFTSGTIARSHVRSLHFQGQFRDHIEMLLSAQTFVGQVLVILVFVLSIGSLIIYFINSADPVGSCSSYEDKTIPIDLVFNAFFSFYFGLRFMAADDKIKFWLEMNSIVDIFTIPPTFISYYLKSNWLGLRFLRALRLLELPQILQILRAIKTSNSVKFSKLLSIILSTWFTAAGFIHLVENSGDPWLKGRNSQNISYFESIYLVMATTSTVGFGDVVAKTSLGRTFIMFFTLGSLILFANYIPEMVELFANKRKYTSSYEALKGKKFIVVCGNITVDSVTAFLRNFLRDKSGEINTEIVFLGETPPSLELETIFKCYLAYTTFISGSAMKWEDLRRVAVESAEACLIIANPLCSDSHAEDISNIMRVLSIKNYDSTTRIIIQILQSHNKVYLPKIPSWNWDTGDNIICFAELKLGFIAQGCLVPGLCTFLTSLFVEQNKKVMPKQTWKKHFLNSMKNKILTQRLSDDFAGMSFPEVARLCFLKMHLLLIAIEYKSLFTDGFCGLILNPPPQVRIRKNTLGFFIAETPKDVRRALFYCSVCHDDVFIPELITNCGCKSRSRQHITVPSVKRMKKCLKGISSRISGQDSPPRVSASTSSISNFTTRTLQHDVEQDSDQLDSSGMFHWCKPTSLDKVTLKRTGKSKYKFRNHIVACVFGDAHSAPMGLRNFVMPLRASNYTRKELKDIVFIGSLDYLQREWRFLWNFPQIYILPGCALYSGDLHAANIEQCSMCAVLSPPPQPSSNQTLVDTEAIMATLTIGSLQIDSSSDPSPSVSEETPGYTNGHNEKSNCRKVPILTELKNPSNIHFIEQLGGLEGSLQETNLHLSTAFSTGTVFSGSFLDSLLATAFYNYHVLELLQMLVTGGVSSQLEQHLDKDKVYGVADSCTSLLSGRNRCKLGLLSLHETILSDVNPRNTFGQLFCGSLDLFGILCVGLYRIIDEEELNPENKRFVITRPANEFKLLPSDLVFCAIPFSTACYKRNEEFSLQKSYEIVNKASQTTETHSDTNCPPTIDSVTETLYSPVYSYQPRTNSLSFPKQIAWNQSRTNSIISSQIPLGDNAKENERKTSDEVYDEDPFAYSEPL
T1 sequence (Q8N7C0 24-313 partner): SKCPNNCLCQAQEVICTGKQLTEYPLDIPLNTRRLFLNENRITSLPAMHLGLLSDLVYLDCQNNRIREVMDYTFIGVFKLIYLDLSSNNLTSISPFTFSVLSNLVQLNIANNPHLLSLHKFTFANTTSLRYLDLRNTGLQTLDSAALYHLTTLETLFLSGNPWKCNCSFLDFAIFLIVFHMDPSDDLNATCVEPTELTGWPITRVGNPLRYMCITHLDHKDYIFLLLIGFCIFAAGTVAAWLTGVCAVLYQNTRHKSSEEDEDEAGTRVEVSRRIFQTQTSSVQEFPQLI
Assay: Tl+ flux assay
Type: cell-based

FC(F)(F)c1cc(NC(=S)Nc2ccc(Br)cc2-c2nnn[nH]2)cc(C(F)(F)F)c1 [NS11021]
Tl+ flux assay (activation; 100 μM used in the screen): found that the SLO1 activator NS11021 also activates SLO3 at high concentrations (Fig. 1B)
